Measurements taken from PubChem BioAssay (NCI).
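The compound was tested at five concentrations on cells cultured in 96-well plates, with a 48-hour exposure period. TGI is the concentration that stops growth completely.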

Experiments:
Assay in all cases: NCI tumour cell line growth inhibition, 48 h
SK-MEL-28 melanoma = system: SK-MEL-28 melanoma
NCI-H226 lung = system: NCI-H226 lung
SNB-78 CNS = system: SNB-78 CNS
COLO 205 colon = system: COLO 205 colon
SF-539 CNS = system: SF-539 CNS
SK-OV-3 ovarian = system: SK-OV-3 ovarian
UO-31 renal = system: UO-31 renal
HCC-2998 colon = system: HCC-2998 colon
SR leukemia = system: SR leukemia
HOP-92 NSCLC = system: HOP-92 NSCLC
HOP-62 NSCLC = system: HOP-62 NSCLC
SK-MEL-2 melanoma = system: SK-MEL-2 melanoma
HL-60(TB) leukemia = system: HL-60(TB) leukemia
XF 498 CNS = system: XF 498 CNS
HCT-116 colon = system: HCT-116 colon
M19-MEL melanoma = system: M19-MEL melanoma
SF-268 CNS = system: SF-268 CNS
A498 renal = system: A498 renal
LOX IMVI melanoma = system: LOX IMVI melanoma
SN12C renal = system: SN12C renal
IGROV1 ovarian = system: IGROV1 ovarian
UACC-62 melanoma = system: UACC-62 melanoma
LXFL 529 NSCLC = system: LXFL 529 NSCLC
DMS 273 small cell lung = system: DMS 273 small cell lung
DLD-1 colon = system: DLD-1 colon
MALME-3M melanoma = system: MALME-3M melanoma
786-0 renal = system: 786-0 renal
RPMI-8226 leukemia = system: RPMI-8226 leukemia
M14 melanoma = system: M14 melanoma
ACHN renal = system: ACHN renal
RXF-631 renal = system: RXF-631 renal
SNB-75 CNS = system: SNB-75 CNS
CAKI-1 renal = system: CAKI-1 renal

C[C@@H]1CC2(N=CCS2)[C@]2(O)O[C@@H]3C[C@@]4(C)[C@H](C[C@H]3O[C@@H]2O1)C[C@H]1O[C@]12[C@@H]4[C@H](O)C(=O)[C@]1(C)C(C3=CC(=O)OC3)CC[C@]21O (stereo partly drawn)
TGI (SK-MEL-28 melanoma): 89 nM | TGI (NCI-H226 lung): 74.6 nM | TGI (SNB-78 CNS): 49.5 nM | TGI (COLO 205 colon): 82.8 nM | TGI (SF-539 CNS): 12.2 nM | TGI (SK-OV-3 ovarian): 77.8 nM | TGI (UO-31 renal): 75.5 nM | TGI (HCC-2998 colon): 72.7 nM | TGI (SR leukemia): 15 nM | TGI (HOP-92 NSCLC): 80 nM | TGI (HOP-62 NSCLC): 21.1 nM | TGI (SK-MEL-2 melanoma): 74.9 nM | TGI (HL-60(TB) leukemia): 35.3 nM | TGI (XF 498 CNS): 33.6 nM | TGI (HCT-116 colon): 30.1 nM | TGI (M19-MEL melanoma): 78.4 nM | TGI (SF-268 CNS): 14.6 nM | TGI (A498 renal): 38.6 nM | TGI (LOX IMVI melanoma): 23.9 nM | TGI (SN12C renal): 20.2 nM | TGI (IGROV1 ovarian): 159 nM | TGI (UACC-62 melanoma): 51.1 nM | TGI (LXFL 529 NSCLC): 16.6 nM | TGI (DMS 273 small cell lung): 21.4 nM | TGI (DLD-1 colon): 21.6 nM | TGI (MALME-3M melanoma): 28.5 nM | TGI (786-0 renal): 17.9 nM | TGI (RPMI-8226 leukemia): 57.8 nM | TGI (M14 melanoma): 49.7 nM | TGI (ACHN renal): 14.9 nM | TGI (RXF-631 renal): 102 nM | TGI (SNB-75 CNS): 98.4 nM | TGI (CAKI-1 renal): 26.5 nM
